Assay results taken from US10750743B2, “Pyridazinone herbicides” (E.I. DU PONT DE NEMOURS AND COMPANY, priority 2015, dated 2020).

Columns and labels:
Assay type in all cases: in vivo
[1] = test system: sedge, umbrella (small-flower umbrella sedge, Cyperus difformis); assay: Test B flooded paddy test, visual rating; details: Flood, 250 g ai/ha, applied to paddy water, rated after 13 to 15 d
How it was run: (§1)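 Ratings use a 0-100 visual scale, where 100 is complete control, and compare treated plants with controls after 13 to 15 d of greenhouse growth. Compound went straight into paddy water kept 3 cm over the soil surface, applied to seedlings at the 2-leaf stage.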

[2] = test system: rice (Oryza sativa); assay: Test B flooded paddy test, visual rating; details: Flood, 250 g ai/ha, applied to paddy water, rated after 13 to 15 d
How it was run: as §1

[3] = test system: ducksalad (Heteranthera limosa); assay: Test B flooded paddy test, visual rating; details: Flood, 250 g ai/ha, applied to paddy water, rated after 13 to 15 d
How it was run: as §1

[4] = test system: barnyardgrass (Echinochloa crus-galli); assay: Test B flooded paddy test, visual rating; details: Flood, 250 g ai/ha, applied to paddy water, rated after 13 to 15 d
How it was run: as §1

[5] = test system: ragweed (common ragweed, Ambrosia elatior); assay: Test A postemergence application, visual injury rating; details: for Ragweed plant response rating: 0 to 100 scale, 0 no effect, 100 complete control
How it was run: (§2)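 Injury ratings, 0 (no effect) to 100 (complete control), were scored visually versus untreated plants roughly 10 d after treatment under greenhouse conditions. Treatments used surfactant-containing solvent formulations, sprayed onto soil preemergence or onto one- to two-leaf seedlings (2-10 cm) postemergence, grown in a loam-sand mix.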

[6] = test system: ryegrass, It. (Italian ryegrass, Lolium multiflorum); assay: as above; details: for Ryegrass, It. plant response rating: 0 to 100 scale, 0 no effect, 100 complete control
How it was run: as §2

[7] = test system: blackgrass (Alopecurus myosuroides); assay: as above; details: 0 to 100 scale, 0 no effect, 100 complete control
How it was run: as §2

[8] = test system: wheat (Triticum aestivum); assay: as above; details: for Wheat plant response rating: 0 to 100 scale, 0 no effect, 100 complete control
How it was run: as §2

[9] = test system: corn (Zea mays); assay: as above; details: for Corn plant response rating: 0 to 100 scale, 0 no effect, 100 complete control
How it was run: as §2

[10] = test system: galium (catchweed bedstraw, Galium aparine); assay: as above; details: for Galium plant response rating: 0 to 100 scale, 0 no effect, 100 complete control
How it was run: as §2

[11] = test system: foxtail, giant (giant foxtail, Setaria faberii); assay: as above; details: for Foxtail, Giant plant response rating: 0 to 100 scale, 0 no effect, 100 complete control
How it was run: as §2

[12] = test system: kochia (Kochia scoparia); assay: as above; details: for Kochia plant response rating: 0 to 100 scale, 0 no effect, 100 complete control
How it was run: as §2

[13] = test system: pigweed (Amaranthus retroflexus); assay: as above; details: for Pigweed plant response rating: 0 to 100 scale, 0 no effect, 100 complete control
How it was run: as §2

[14] = test system: barnyardgrass (Echinochloa crus-galli); assay: as above; details: 0 to 100 scale, 0 no effect, 100 complete control
How it was run: as §2

[15] = test system: ragweed (common ragweed, Ambrosia elatior); assay: Test A preemergence, directed soil spray, visual injury rating; details: 0 is no effect, 100 is complete control
How it was run: as §2

[16] = test system: ryegrass, It. (Italian ryegrass, Lolium multiflorum); assay: as above; details: 0 is no effect, 100 is complete control
How it was run: as §2

[17] = test system: foxtail, giant (giant foxtail, Setaria faberii); assay: as above; details: 0 is no effect, 100 is complete control
How it was run: as §2

[18] = test system: kochia (Kochia scoparia); assay: as above; details: 0 is no effect, 100 is complete control
How it was run: as §2

[19] = test system: pigweed (Amaranthus retroflexus); assay: as above; details: 0 is no effect, 100 is complete control
How it was run: as §2

[20] = test system: barnyardgrass (Echinochloa crus-galli); assay: as above; details: 0 is no effect, 100 is complete control
How it was run: as §2

[21] = 31 g ai/ha, 0 is no effect, 100 is complete control

| SMILES | Sedge, Umbrella plant response rating (0 to 100 scale, 0 is no effect, 100 is complete control) [1] | Rice plant response rating (0 to 100 scale, 0 is no effect, 100 is complete control) [2] | Ducksalad plant response rating (0 to 100 scale, 0 is no effect, 100 is complete control) [3] | Barnyardgrass plant response rating (0 to 100 scale, 0 is no effect, 100 is complete control) [4] | Ragweed plant response rating ([5]; 125 g ai/ha) | Ryegrass, It. plant response rating ([6]; 125 g ai/ha) | Blackgrass plant response rating ([7]; 125 g ai/ha) | Wheat plant response rating ([8]; 125 g ai/ha) | Corn plant response rating ([9]; 125 g ai/ha) | Galium plant response rating ([10]; 125 g ai/ha) | Foxtail, Giant plant response rating ([11]; 125 g ai/ha) | Kochia plant response rating ([12]; 125 g ai/ha) | Pigweed plant response rating ([13]; 125 g ai/ha) | Barnyardgrass plant response rating ([14]; 125 g ai/ha) | Plant response rating (0 to 100 scale), Ragweed ([15]; 125 g ai/ha) | Plant response rating (0 to 100 scale), Ryegrass, It. ([16]; 125 g ai/ha) | Plant response rating (0 to 100 scale), Foxtail, Giant ([17]; 125 g ai/ha) | Plant response rating (0 to 100 scale), Kochia ([18]; 125 g ai/ha) | Plant response rating (0 to 100 scale), Pigweed ([19]; 125 g ai/ha) | Plant response rating (0 to 100 scale), Barnyardgrass ([20]; 125 g ai/ha) | further results |
| --- | --- | --- | --- | --- | --- | --- | --- | --- | --- | --- | --- | --- | --- | --- | --- | --- | --- | --- | --- | --- | --- |
| Cn1nc(Cl)c(O)c(-c2ccc(F)c3ccoc23)c1=O [Compound 70] | 0 | 0 | 0 | 0 | 90 | 100 | 30 | 0 | 0 | 90 | 40 | 90 | 70 | 90 | 0 | 100 | 50 | 40 | 30 | 90 | Plant response rating (0 to 100 scale), Ragweed [5, 21]: 10; Plant response rating (0 to 100 scale), Ryegrass, It. [6, 21]: 70; Blackgrass plant response rating ([7]; 31 g ai/ha): 0; Plant response rating (0 to 100 scale), Wheat [8, 21]: 0; Plant response rating (0 to 100 scale), Corn [9, 21]: 0; Plant response rating (0 to 100 scale), Galium [10, 21]: 50; Plant response rating (0 to 100 scale), Foxtail, Giant [11, 21]: 10; Plant response rating (0 to 100 scale), Kochia [12, 21]: 40; Plant response rating (0 to 100 scale), Pigweed [13, 21]: 10; Barnyardgrass plant response rating ([14]; 31 g ai/ha): 10; Plant response rating (0 to 100 scale), Ragweed ([15]; 31 g ai/ha): 0; Plant response rating (0 to 100 scale), Ryegrass, It. ([16]; 31 g ai/ha): 70; Plant response rating (0 to 100 scale), Foxtail, Giant ([17]; 31 g ai/ha): 10; Plant response rating (0 to 100 scale), Kochia ([18]; 31 g ai/ha): 0; Plant response rating (0 to 100 scale), Pigweed ([19]; 31 g ai/ha): 10; Plant response rating (0 to 100 scale), Barnyardgrass ([20]; 31 g ai/ha): 40 |
| Cc1nn(C)c(=O)c(-c2ccc(Cl)c3ccsc23)c1O [Compound 55] | 0 | 0 | 0 | 0 | 30 | 70 | 10 | 0 | 0 | 100 | 0 | 100 | 60 | 10 | 0 | 100 | 0 | 20 | 60 | 0 | Ragweed plant response rating ([5]; 31 g ai/ha): 0; Ryegrass, It. plant response rating ([6]; 31 g ai/ha): 40; Blackgrass plant response rating ([7]; 31 g ai/ha): 0; Wheat plant response rating ([8]; 31 g ai/ha): 0; Corn plant response rating ([9]; 31 g ai/ha): 0; Galium plant response rating ([10]; 31 g ai/ha): 80; Foxtail, Giant plant response rating ([11]; 31 g ai/ha): 0; Kochia plant response rating ([12]; 31 g ai/ha): 40; Pigweed plant response rating ([13]; 31 g ai/ha): 30; Barnyardgrass plant response rating ([14]; 31 g ai/ha): 0; Plant response rating (0 to 100 scale), Ragweed ([15]; 31 g ai/ha): 0; Plant response rating (0 to 100 scale), Ryegrass, It. ([16]; 31 g ai/ha): 80; Plant response rating (0 to 100 scale), Foxtail, Giant ([17]; 31 g ai/ha): 0; Plant response rating (0 to 100 scale), Kochia ([18]; 31 g ai/ha): 0; Plant response rating (0 to 100 scale), Pigweed ([19]; 31 g ai/ha): 0; Plant response rating (0 to 100 scale), Barnyardgrass ([20]; 31 g ai/ha): 0 |
| Cc1nn(C)c(=O)c(-c2c(C)sc3ncccc23)c1OC(=O)C1CC1 [Compound 23] | 0 | 0 | 0 | 0 | 0 | 0 | 0 | 0 | 0 | 0 | 0 | 0 | 0 | 0 | 0 | 0 | 0 | 0 | 0 | 0 | Ragweed plant response rating ([5]; 500 g ai/ha): 0; Ryegrass, It. plant response rating ([6]; 500 g ai/ha): 10; Blackgrass plant response rating ([7]; 500 g ai/ha): 0; Wheat plant response rating ([8]; 500 g ai/ha): 0; Corn plant response rating ([9]; 500 g ai/ha): 20; Galium plant response rating ([10]; 500 g ai/ha): 0; Foxtail, Giant plant response rating ([11]; 500 g ai/ha): 0; Kochia plant response rating ([12]; 500 g ai/ha): 0; Pigweed plant response rating ([13]; 500 g ai/ha): 40; Barnyardgrass plant response rating ([14]; 500 g ai/ha): 0; Plant response rating (0 to 100 scale), Ragweed ([15]; 500 g ai/ha): 0; Plant response rating (0 to 100 scale), Ryegrass, It. ([16]; 500 g ai/ha): 0; Plant response rating (0 to 100 scale), Foxtail, Giant ([17]; 500 g ai/ha): 0; Plant response rating (0 to 100 scale), Kochia ([18]; 500 g ai/ha): 0; Plant response rating (0 to 100 scale), Pigweed ([19]; 500 g ai/ha): 0; Plant response rating (0 to 100 scale), Barnyardgrass ([20]; 500 g ai/ha): 0 |
| COC(=O)Oc1c(C)nn(C)c(=O)c1-c1ccc(Cl)c2cc(C)oc12 [Compound 40] | 0 | 0 | 0 | 0 | 40 | 70 | 20 | 0 | 10 | 100 | 20 | 0 | 40 | 20 | 50 | 90 | 20 | 0 | 60 | 20 | Ragweed plant response rating ([5]; 31 g ai/ha): 20; Ryegrass, It. plant response rating ([6]; 31 g ai/ha): 40; Blackgrass plant response rating ([7]; 31 g ai/ha): 0; Wheat plant response rating ([8]; 31 g ai/ha): 0; Corn plant response rating ([9]; 31 g ai/ha): 0; Galium plant response rating ([10]; 31 g ai/ha): 90; Foxtail, Giant plant response rating ([11]; 31 g ai/ha): 10; Kochia plant response rating ([12]; 31 g ai/ha): 0; Pigweed plant response rating ([13]; 31 g ai/ha): 20; Barnyardgrass plant response rating ([14]; 31 g ai/ha): 10; Plant response rating (0 to 100 scale), Ragweed ([15]; 31 g ai/ha): 0; Plant response rating (0 to 100 scale), Ryegrass, It. ([16]; 31 g ai/ha): 80; Plant response rating (0 to 100 scale), Foxtail, Giant ([17]; 31 g ai/ha): 0; Plant response rating (0 to 100 scale), Kochia ([18]; 31 g ai/ha): 0; Plant response rating (0 to 100 scale), Pigweed ([19]; 31 g ai/ha): 0; Plant response rating (0 to 100 scale), Barnyardgrass ([20]; 31 g ai/ha): 0 |
